The subject of data set [1] is mononuclear leucocytes. The conditions noted are these: WO 03/043613 A1; cited from earlier work.
For data set [2] the following is noted: aqueous solutions as described in WO03/43613, storage; cited from earlier work.
Data set [3] concerns polymorphonuclear leucocytes. The note with it: WO 03/043613 A1; cited from earlier work.
Data set [4] concerns human peripheral blood leukocytes. The experiment in a line: chemiluminescence of peripheral blood leukocytes (oxidative burst response). It counts as cell-based. The conditions noted are these: fairly low concentrations. An excerpt:
Chemiluminescence is a measure of oxidative burst response. […] As the actual tissue damage caused by inflammatory cells such as PMN's and monocytes/macrophages, through the release of proteolytic and hydrolytic enzymes as well as toxic reactive oxygen radicals are activated in the tissue and joints, the isolated compound should be a potent inhibitor of the oxidative burst response of the human peripheral blood polymorphonuclear leukocytes, the most important and abundant inflammatory cells. It is therefore believed that the glycosides of mono- or diacylglycerol compounds, especially GOPO, are responsible for the anti inflammatory effects of rose hip extracts.

SMILES strings stand for the structures.

With `CC/C=C\C/C=C\C/C=C\CCCCCCCC(=O)OCC(CO[C@@H]1O[C@H](CO)[C@H](O)[C@H](O)[C@H]1O)OC(=O)CCCCCCC/C=C\C/C=C\C/C=C\CC` (stereo partly drawn) [GOPO, 3-β-D-galactopyranosyloxy-2-(octadeca-9Z,12Z,15Z-trienoyloxy)propanyl octadeca-9Z,12Z,15Z-trienoate], the “chemotaxis of mononuclear leucocytes” value in data set [1] is on record as “alleviating”. In addition, the “stability in aqueous solutions” value in data set [2] is recorded as “lack stability”. Moreover, the “chemiluminescence of polymorphonuclear leucocytes” value in data set [3] is “alleviating”. Also, the “chemiluminescence of human peripheral blood leukocytes” value in data set [4] is recorded as “inhibited”.

Source of the values: patent publication US20110257110A1, “Composition comprising a glycoside of a mono- or diacylglycerol compound and an oil rich in n-3 polyunsaturated fatty acids, a method of producing the composition and use of the composition” (HYBEN VITAL LICENS APS, priority 2008, published 2011).
